What was measured:
Experiment in all cases: relative viability (nuclei count vs DMSO), 5 days (fraction); higher = more cells survive
[1] = compound: CC1=CC=C(C=C1)C(=O)CN2C3=C(CCCC3)SC2=N [Pifithrin_alpha] + O=C(c1cc(Cc2n[nH]c(=O)c3ccccc23)ccc1F)N1CCN(C(=O)C2CC2)CC1 [Olaparib] (partner 8 µM)
Summary of the method: (§1)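 Values are medians from duplicate plates. Each reflects relative viability, defined as the nuclei count of treated wells over that of vehicle wells. Lung cancer cell lines in 1536-well plates were pin-tool dosed one day after seeding with one drug alone or with a fixed anchor-drug dose plus five library-drug doses (not always all listed) in √10 steps, then fixed, stained and imaged at 4× after 5 days.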

Axitinib + Vorinostat = compound: CNC(=O)c1ccccc1Sc1ccc2c(/C=C/c3ccccn3)n[nH]c2c1 [Axitinib] + O=C(CCCCCCC(=O)Nc1ccccc1)NO [Vorinostat] (partner 1 µM)
Summary of the method: as §1

[2] = compound: CC1=CC=C(C=C1)C(=O)CN2C3=C(CCCC3)SC2=N [Pifithrin_alpha] + CC(=O)c1c(C)c2cnc(Nc3ccc(N4CCNCC4)cn3)nc2n(C2CCCC2)c1=O [Palbociclib] (partner 0.5 µM)
Summary of the method: as §1

[3] = compound: CC1=CC=C(C=C1)C(=O)CN2C3=C(CCCC3)SC2=N [Pifithrin_alpha] + COc1cc2c(Oc3ccc(NC(=O)C4(C(=O)Nc5ccc(F)cc5)CC4)cc3F)ccnc2cc1OCCCN1CCOCC1 [Foretinib] (partner 0.25 µM)
Summary of the method: as §1

Cell Line: NCI-H650
- relative viability ([1]; first compound 3.162 µM): 0.398
- relative viability ([1]; first compound 10 µM): 0.339
- relative viability ([1]; first compound 31.62 µM): 0.221
- relative viability ([1]; first compound 100 µM): 0.355
- relative viability (Axitinib + Vorinostat; first compound 0.005 µM): 0.371
- relative viability (Axitinib + Vorinostat; first compound 0.01581 µM): 0.452
- relative viability (Axitinib + Vorinostat; first compound 0.05 µM): 0.448
- relative viability (Axitinib + Vorinostat; first compound 0.1581 µM): 0.459
- relative viability (Axitinib + Vorinostat; first compound 0.5 µM): 0.366
- relative viability ([2]; first compound 3.162 µM): 0.371
- relative viability ([2]; first compound 10 µM): 0.328
- relative viability ([2]; first compound 31.62 µM): 0.204
- relative viability ([2]; first compound 100 µM): 0.327
- relative viability ([3]; first compound 3.162 µM): 0.996
- relative viability ([3]; first compound 10 µM): 1.05
- relative viability ([3]; first compound 31.62 µM): 0.793
- relative viability ([3]; first compound 100 µM): 0.902

— the supplement of paper PMC10307832
